Test results published in paper PMC4287998 (Phytochemistry letters, 2014).

Key:
[1] = tested on: HT-29 human colon cancer cell line; experiment: Cytotoxicity assay; format: cell-based; settings: HT-29 cells, two days' incubation, SRB; ED50 > 20 µM considered inactive
NF-κB (p65) = NF-κB (p65) (Homo sapiens, UniProt Q04206); experiment: Enzyme-based ELISA NF-κB; format: biochemical
[2] = tested on: Leishmania mexicana promastigotes; experiment: Promastigote assay, live/dead parasites by flow cytometry; format: cell-based; settings: 48 h, read-out: L. mexicana promastigotes IC50

Sequence of NF-κB (p65) (Q04206 whole entry): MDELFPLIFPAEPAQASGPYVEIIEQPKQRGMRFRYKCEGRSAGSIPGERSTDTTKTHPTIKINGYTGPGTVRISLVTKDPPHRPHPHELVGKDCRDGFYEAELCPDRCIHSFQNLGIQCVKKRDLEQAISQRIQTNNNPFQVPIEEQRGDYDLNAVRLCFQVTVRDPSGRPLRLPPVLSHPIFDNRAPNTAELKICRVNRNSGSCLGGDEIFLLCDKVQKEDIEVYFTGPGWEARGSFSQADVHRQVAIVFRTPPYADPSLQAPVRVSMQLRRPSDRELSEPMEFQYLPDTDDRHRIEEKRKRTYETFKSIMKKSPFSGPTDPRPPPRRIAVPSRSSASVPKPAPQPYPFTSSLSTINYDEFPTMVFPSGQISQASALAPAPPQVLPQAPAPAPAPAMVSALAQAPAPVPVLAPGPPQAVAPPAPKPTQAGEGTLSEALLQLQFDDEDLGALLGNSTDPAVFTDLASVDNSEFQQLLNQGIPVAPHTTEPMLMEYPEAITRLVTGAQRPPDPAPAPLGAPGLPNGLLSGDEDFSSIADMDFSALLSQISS
Sequence of NF-κB (p65) (P19838 1-433 partner limits assumed): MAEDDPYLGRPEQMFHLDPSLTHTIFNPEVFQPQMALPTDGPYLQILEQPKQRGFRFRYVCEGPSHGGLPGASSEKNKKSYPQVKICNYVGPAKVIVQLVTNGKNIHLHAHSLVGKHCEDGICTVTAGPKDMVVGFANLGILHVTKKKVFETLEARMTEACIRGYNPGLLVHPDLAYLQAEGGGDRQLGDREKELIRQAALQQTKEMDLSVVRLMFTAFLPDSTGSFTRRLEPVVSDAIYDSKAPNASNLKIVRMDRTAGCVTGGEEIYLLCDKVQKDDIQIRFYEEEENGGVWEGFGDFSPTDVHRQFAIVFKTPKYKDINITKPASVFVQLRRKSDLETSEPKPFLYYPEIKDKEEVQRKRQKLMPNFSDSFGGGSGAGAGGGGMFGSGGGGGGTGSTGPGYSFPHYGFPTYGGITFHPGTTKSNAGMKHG

Compound	HT-29 ED50 [1] [µM]	IC50 (NF-κB (p65)) [µM]	IC50 [2] [µM]
villalstonine N(4)-oxide [Compound 8]	>20	–	–
COc1ccc([C@@]23Oc4cc(OC)cc(OC)c4[C@]2(O)[C@H](O)[C@H](C(=O)N(C)C)[C@H]3c2ccccc2)cc1 [Rocaglamide, reference compound]	0.005	–	–
CC(=O)C1=COC[C@@H]2[C@H]1C[C@H]1c3c(c4ccccc4n3C)C[C@@H]2N1C [Compound 4, alstonerine]	>20	> 20	145
N(4)-methyltalpinine [Compound 1]	>20	–	–
21-deoxy-N(4)-methyl-21-oxo-N(4),21-secotalpinine [Compound 2]	>20	–	–
C/C=C1\CN2CCC34CC5C6CC7c8c(c9ccccc9n8C)CC(C6COC5(C)OC35C2CC1C(C(=O)OC)N5c1ccccc14)N7C (stereo not drawn) [Compound 7, villalstonine]	8.0	–	–
C/C=C1/C[N+]2(C)CC[C@@]34C[C@H]5[C@@H]6C[C@H]7c8c(c9ccccc9n8C)C[C@@H]([C@@H]6CO[C@@]5(C)O[C@@]35[C@@H]2C[C@@H]1[C@@H](C(=O)OC)N5c1ccccc14)N7C.[Cl-] (stereo partly drawn) [Compound 10, villalstonidine E]	6.5	–	–
villalstonidine D [Compound 9]	>20	–	–
C/C=C1/CN2[C@H]3C[C@@H]1[C@@H](CO)[C@@H]2Cc1c3n(C)c2ccccc12 [Compound 6, affinisine]	>20	–	–
C[C@@H]1[C@H](O)[C@@H](C)/C=C/C=C/C=C/C=C/C=C/C=C/C=C/[C@H](O[C@@H]2O[C@H](C)[C@@H](O)[C@H](N)[C@@H]2O)C[C@@H]2O[C@](O)(C[C@@H](O)C[C@@H](O)[C@H](O)CC[C@@H](O)C[C@@H](O)CC(=O)O[C@H]1C)C[C@H](O)[C@H]2C(=O)O [Amphotericin B, reference compound]	–	–	0.09
CC(=O)O[C@H]1C(=O)[C@@]2(C)[C@H]([C@H](OC(=O)c3ccccc3)[C@]3(O)C[C@H](OC(=O)[C@H](O)[C@@H](NC(=O)c4ccccc4)c4ccccc4)C(C)=C1C3(C)C)[C@]1(OC(C)=O)CO[C@@H]1C[C@@H]2O [Paclitaxel, reference compound]	0.006	–	–
CC1=C(C=O)[C@@H]2C[C@H]3c4c(c5ccccc5n4C)C[C@@H]([C@@H]2CO1)N3C [Compound 3, alstonerinal]	8.6	> 20	105
C[C@@H]1OC[C@@H]2[C@@H](C[C@H]3c4c(c5ccccc5n4C)C[C@@H]2N3C)[C@H]1CO [Compound 5, macrocarpine B]	–	> 20	> 200
